Consider four compounds from patent publication US9464093B2, “Substituted imidazo[4',5':4,5]cyclopenta[1,2-e]pyrrolo[1,2-a]pyrazines and oxazolo[4',5':4,5]cyclopenta[1,2-e]pyrrolo[1,2-a]pyrazines for treating brain cancer” (Mayo Foundation for Medical Education and Research, priority 2012, dated 2016).

In series [1] the test system is U87. Kind of series: Cell proliferation assay U87 (Example 6). The series is classed as cell-based. Conditions: cells counted on the sixth day. Here is the method:
(§1) In-vitro assays were performed to assess the cytotoxic impact of AA analogues on breast cancer cell lines (MB-468, MB-453, and T47D), lymphoma cell lines (Raji and OCI-LY10), and glioblastoma multiforme cell line (U87). The three breast cancer cell lines represent three subtypes of breast cancer: triple-negative (MB-468), Her2-positive (MB-453), and hormone receptor positive (T47D).
(§2) The IC50 values obtained for each compound represents the concentration of the tested compound that is needed to decrease the cancer cell count by 50%. Cancer cells were seeded in triplicate at 50,000 cells per well of a 24-well plate in 0.5 ml medium. […] Cells were harvested and counted on the sixth day using a Beckman Coulter counter.

In series [2] the test system is MB-468. Nature of the series: Cell proliferation assay MB-468 (Example 6). The series is classed as cell-based. As to conditions: cells counted on the sixth day. Here is the method: as §1, §2
The test system of series [3] is U87 cells. Nature of the series: U87 orthotopic murine model for glioblastoma multiforme. As to conditions: for Median Survival (Day) GBM (U-87): control 25.5; for survival (Kaplan-Meier) vs control, U87 model / tumor growth (BLI) vs control, U87 model: all treatment groups (2.5 or 5 mg/kg i.p. daily for 4 days); for tolerability, U87 model: both dose levels (2.5 and 5 mg/kg). It is filed as in vivo. Here is the method:
(§3) Female athymic mice (8-10 weeks old and weighing 20-25 g at the beginning of the study) were purchased from Harlan laboratories (Indianapolis, Ind.). They were housed in a temperature-controlled sterilized room (23±2° C.) with a 12-h light/dark cycle and free access to food and water throughout the study.
(§4) Murine brain tumor models were created by intracerebral injection of luciferase-transfected cancer cells in athymic mice under anesthesia using a stereotactic platform. For murine model for CNS lymphoma, 1×10^5 OCI-LY10 B lymphoma cells were used. For murine model for metastatic breast cancer of the brain (MBCB), 1×10^5 MB-468 triple-negative breast cancer cells were used. For murine model for glioblastoma multiforme (GBM), 1.75×10^5 U87 cells were used. Eight-week-old athymic mice underwent a minimum 7-day acclimation/quarantine prior to surgery. Surgery was performed in a laminar flow hood under sterile conditions. Tylenol 300 mg/kg PO was given for analgesia 48 hours before the surgery and continuing 48 hours postoperatively. Anesthesia was achieved by inhalation of 1-2% isoflurane. After the mouse became well anesthetized, it was placed in the Kopf stereotactic instrument. A small amount of BNP antibiotic cream (a mixture of Bacitracin, Neomycin and Polymyxin) was smeared on its eyes to prevent infection and corneal damage during surgery. A strip of soft fabric was placed over the mouse's body and tail to prevent excessive heat loss during surgery. The scalp area was cleaned with a 2% solution of Betadine and dried with cotton tipped applicator. A midline sagittal incision was made in the scalp. A small burr hole was drilled in the left skull with a surgical drill (Kopf) or a Dremel drill according to the coordinates (AP: 0.5 mm, LM: 2.5 mm) as determined by reference to the mouse brain atlas by Franklin and Paxinos. The dura mater was surgically exposed, and a 10 μl Hamilton syringe with a 26S-gauge beveled needle was lowered into the left cerebral hemisphere up to a depth of 3 mm and 5 μl of tumor cells were slowly infused (0.5 μl/min). The needle was left in place for 5 minutes to prevent reflux and then was slowly removed. The skin was closed with wound clips. The mice recovered from anesthesia and surgery in a warm environment and were not returned to their cages until motor activity returned. Cages were placed on top of a heating pad to minimize the loss of body heat during the recovery. The mice were monitored post-operatively at least twice a day for 5 days or until recovery was complete.
(§5) BLI was used to assess the impact of the treatments on the brain tumor growth. After intracerebral injection of cancer cells, all the mice were subjected to bioluminesence imaging (BLI) twice a week starting at day-4 post-intracerebral injection to monitor the real-time in vivo tumor growth. BLI was conducted using a Xenogen Lumina optical imaging system (Caliper Life Sciences, Hopkinton, Mass.). Mice were anesthetized with isofluorane before intraperitoneal injections of luciferin at a dose of 150 mg/kg, providing a saturating substrate concentration for luciferase enzyme. Peak luminescent signals were recorded 10 minutes after luciferin injection. Regions of interest encompassing the intracranial area of signal were defined using Living Image software (Xenogen, Alameda, Calif.), and the total photons/s/steradian/cm2 was recorded.
(§6) Five mice each were assigned to one of seven treatment groups or one vehicle control group for all three brain tumor models. Mice in experimental groups received either 2.5 mg/kg or 5 mg/kg of AA, CEAA, or DCEAA by intraperitoneal route daily for 4 days. For CAA, only 2.5 mg/Kg by intraperitoneal route daily for 4 days was used. The control group received DMSO by intraperitoneal route for 4 days. The end point for the survival analysis was the development of limb paralysis. Animals were checked at least twice per day. Animals that reached the end point were sacrificed by CO2 anesthesia. […]

The test system of series [4] is MB-453. Nature of the series: Cell proliferation assay MB-453 (Example 6). As to conditions: cells counted on the sixth day. The series is classed as cell-based. Here is the method: as §1, §2
Series [5] concerns MB-468 triple-negative breast cancer cells. Kind of series: MB-468 orthotopic murine model for metastatic breast cancer of the brain. Conditions: for Median Survival (Day) Breast Cancer (MB-468): control 52; for survival (Kaplan-Meier) vs control, MB-468 model / tumor growth (BLI) vs control, MB-468 model: all treatment groups (2.5 or 5 mg/kg i.p. daily for 4 days); for tolerability, MB-468 model: both dose levels (2.5 and 5 mg/kg). It is filed as in vivo, athymic mice. Here is the method: as §3, §4, §5, §6

For series [6], the system named is DU145 prostate cancer cells. Nature of the series: Cytotoxicity, MTT method, DU145. Conditions: read-out: Cytotoxicity (IC50, μM) DU145.
Method: The cell suspension in the culture medium was plated into each well of 96-well plates (10,000 cells/well/100 μL). After 24 h, testing compounds were added, and then the plates were incubated for an additional 24 h in a humidified atmosphere of 5% CO2 at 37° C. […] The IC50 value was determined by linear interpolation from the growth inhibition curve.
Series [7] concerns MB-468 (triple-negative breast cancer cells). Nature of the series: Cytotoxicity, cell count, MB-468 (Example 4). Conditions: read-out: Cytotoxicity (IC50, μM) MB-468.
Method: (§7) Raji cells and MB-468 cells were purchased from American Tissue Culture (Manassas, Va.). […] Cells were harvested and counted on the third day in a Coulter Particle Counter (Beckman-Coulter Corp.: Brea, Calif.). IC50 values were calculated using GraphPad Prism 5 (GraphPad Software Inc., La Jolla, Calif.).
For series [8], the system named is Raji. Kind of series: Cell proliferation assay Raji (Example 6). Conditions: cells counted on the sixth day. The series is classed as cell-based. Here is the method: as §1, §2
Series [9] deals with Raji B cells (Burkitt's lymphoma cells). Kind of series: Cytotoxicity, cell count, Raji (Example 4). As to conditions: read-out: Cytotoxicity (IC50, μM) Raji.
Method: as §7
The test system of series [10] is T47D. Kind of series: Cell proliferation assay T47D (Example 6). It is filed as cell-based. Conditions: cells counted on the sixth day. As to the method: as §1, §2
Setting [11] is: 2.5 mg/kg intraperitoneal daily for 4 days.
The mark [12] stands for this setting: 5 mg/kg intraperitoneal daily for 4 days.

Entries after “also recorded” stand apart in the source; their conditions may differ. Where two headings read alike, the source gives them in different places.

As for `CN1C(=O)N[C@H]2[C@@H]3NC(=O)c4ccc(Cl)n4[C@@H]3C[C@]21O` [CAA, chloroagelastatin A], the IC50 – broadly, the concentration at which inhibition is half-maximal – in series [1] (Homo sapiens, U-87 MG) was determined as 96.6 nM; in [2], 81.1 nM; in series [4], 91.9 nM; in series [6] (Homo sapiens, DU-145, 24 h), 1.2 µM; in series [7] it was 0.08 µM; in series [8] (Homo sapiens, Raji), 181 nM. Also, the IC50 in series [9] (Homo sapiens, Raji) was found to be 0.18 µM; in [10] (Homo sapiens, T47D), 29.8 nM. Also, the “weight loss, U87 model” value in series [3] (2.5 mg/kg) was “Some weight loss”. Besides, in series [3] (setting [11]), the “Median Survival (Day) GBM (U-87)” value was 31 days. The “survival (Kaplan-Meier) vs control, U87 model” value in [3] was “significantly prolonged survival; also recorded: prolongation of survival”. For the same compound, the “tumor growth (BLI) vs control, U87 model” value in series [3] is recorded as “significantly decreased tumor growth; also recorded: significantly slower”. Further, the “weight loss, MB-468 model” value in series [5] (2.5 mg/kg) is “Some weight loss”. Also, the “Median Survival (Day) Breast Cancer (MB-468)” value (shortened to “Median Survival … (MB-468)”) in series [5] (setting [11]) was 75 days. In addition, the “survival (Kaplan-Meier) vs control, MB-468 model” value in [5] is recorded as “significantly prolonged survival”. For the same compound, the “tumor growth (BLI) vs control, MB-468 model” value in series [5] is listed as “significantly decreased tumor growth”.
For the compound `CCN1C(=O)N[C@H]2[C@@H]3NC(=O)c4cc(Cl)c(Cl)n4[C@@H]3C[C@]21O` [DCEAA, dichloroethylagelastatin A], the IC50 was determined as 256 nM in series [1] (Homo sapiens, U-87 MG); 444 nM in series [2]; 104 nM in [4]; 1.4 µM in series [6] (Homo sapiens, DU-145, 24 h); 0.44 µM in series [7]; 619 nM in series [8] (Homo sapiens, Raji). The IC50 in series [9] (Homo sapiens, Raji) is 0.62 µM; in series [10] (Homo sapiens, T47D) it was 101 nM. Moreover, the “Median Survival (Day) GBM (U-87)” value was determined as 30 days in series [3] (setting [11]) and 34 days in series [3] (setting [12]). Further, the “survival (Kaplan-Meier) vs control, U87 model” value in series [3] is listed as “significantly prolonged survival; also recorded: prolongation of survival”. For the same compound, the “tumor growth (BLI) vs control, U87 model” value in [3] is “significantly decreased tumor growth; also recorded: significantly slower”. For the same compound, the “tolerability, U87 model” value in series [3] is “well tolerated”. In addition, the “Median Survival … (MB-468)” value in series [5] (setting [11]) is 61 days; in [5] (setting [12]), 75 days. Also, the “survival (Kaplan-Meier) vs control, MB-468 model” value in [5] was “significantly prolonged survival; also recorded: prolongation of survival”. In series [5], the “tumor growth (BLI) vs control, MB-468 model” value is “significantly decreased tumor growth; also recorded: significantly slower”. In addition, the “tolerability, MB-468 model” value in series [5] was “well tolerated”.
`CCN1C(=O)N[C@H]2[C@@H]3NC(=O)c4ccc(Cl)n4[C@@H]3C[C@]21O` [CEAA, chloroethylagelastatin A]: the IC50 in [1] (Homo sapiens, U-87 MG) is 109 nM; in [2], 277 nM; in series [4], 141 nM; in series [6] (Homo sapiens, DU-145, 24 h) it was 2.6 µM; in [7], 0.28 µM; in series [8] (Homo sapiens, Raji), 296 nM. The IC50 came out at 0.3 µM in series [9] (Homo sapiens, Raji) and 20.7 nM in series [10] (Homo sapiens, T47D). The results for the “Median Survival (Day) GBM (U-87)” value in series [3] (setting [11]) and in [3] (setting [12]) were 29 days and 31 days, respectively. Moreover, the “survival (Kaplan-Meier) vs control, U87 model” value in series [3] is recorded as “significantly prolonged survival; also recorded: prolongation of survival”. Also, the “tumor growth (BLI) vs control, U87 model” value in series [3] is “significantly decreased tumor growth; also recorded: significantly slower”. In addition, in series [3], the “tolerability, U87 model” value is “well tolerated”. Moreover, the “Median Survival … (MB-468)” value came out at 56 days in series [5] (setting [11]) and 64 days in series [5] (setting [12]). In addition, the “survival (Kaplan-Meier) vs control, MB-468 model” value in series [5] is on record as “significantly prolonged survival; also recorded: prolongation of survival”. The “tumor growth (BLI) vs control, MB-468 model” value in series [5] is on record as “significantly decreased tumor growth; also recorded: significantly slower”. For the same compound, in series [5], the “tolerability, MB-468 model” value is “well tolerated”.
Consider `CN1C(=O)N[C@H]2[C@@H]3NC(=O)c4ccc(Br)n4[C@@H]3C[C@]21O` [AA, agelastatin A, reference compound], for which the IC50 in series [1] was 2800 nM; in series [2], 2800 nM; in series [4], 644 nM; in series [6] (MTT, 24 h incubation), 2.3 µM; in [7] (cells counted on the third day), 2.8 µM; in series [8], 137 nM. Further, the IC50 turned out to be 0.14 µM in [9] (cells counted on the third day) and 55.1 nM in [10]. For the same compound, the figures for the “Median Survival (Day) GBM (U-87)” value in [3] (setting [11]) and in series [3] (setting [12]) were 28 days and 30 days, respectively. The “weight loss, U87 model” value in series [3] (5 mg/kg dose level) is “Some weight loss”. The “survival (Kaplan-Meier) vs control, U87 model” value in series [3] is listed as “significantly prolonged survival; also recorded: prolongation of survival”. Besides, the “tumor growth (BLI) vs control, U87 model” value in [3] is “significantly decreased tumor growth; also recorded: significantly slower”. Moreover, the entries for the “Median Survival … (MB-468)” value in series [5] (setting [11]) and in series [5] (setting [12]) were 57 days and 60.5 days, respectively. Moreover, the “weight loss, MB-468 model” value in series [5] (5 mg/kg dose level) is recorded as “Some weight loss”. Further, the “survival (Kaplan-Meier) vs control, MB-468 model” value in series [5] is recorded as “significantly prolonged survival; also recorded: prolongation of survival”. Also, the “tumor growth (BLI) vs control, MB-468 model” value in [5] is on record as “significantly decreased tumor growth; also recorded: significantly slower”.
